19 compounds from patent publication US20250145589A1, “PYRIDINE DERIVATIVE AND USE THEREOF” (SICHUAN HUIYU PHARMACEUTICAL CO., LTD., priority 2021, published 2025) can be followed below.

In one test the target is PI3Kα (Homo sapiens (Human), UniProt P42336). Nature of the test: Inhibition of PI3Kα efficacy assay (ADP-Glo kinase assay). In kind it is biochemical. The settings on record: read-out: PI3Kα inhibitory activity (IC50). The protocol:
Inhibition of PI3Kα Efficacy assay The ADP-Glo™ kinase assay was used to assess the inhibition of PI3Kα with our compounds. The utilized proteins and assay reagents were obtained from the ADP-Glo™ Kinase Assay Kit (Promega). Initially, a 2 mM stock solution of the test compound (dissolved in DMSO) was serially diluted in five-fold concentrations using DMSO to obtain eight working solutions 1 (200′). […] Subsequently, 2 μL of 2.5×PI and ATP solution mixture were added to each well, mixed, and incubated at RT for 60 minutes. Then, 5 μL of ADP-Glo (containing 10 mM MgCl2) reagent was added to each well, mixed, and incubated at RT for 40 minutes. Finally, 10 μL of the Kinase Detection Reagent was added to each well, mixed, and incubated at RT for 40 minutes. […] Data were analyzed using GraphPad Prism with log(inhibitor) vs. response—Variable Slope(four parameters) fitting calculations for […]. (Note: The negative control refers to the group without inhibitor, and the blank control refers to the group without enzyme.) The data were presented in Tables 1 to 4.

Test [1] deals with NCI-H358 cells (KRAS G12C mutant). Nature of the test: NCI-H358 cell proliferation inhibition (CellTiter-Glo). In kind it is cell-based. Particulars: Homo sapiens, NCI-H358, 72 h; H358 cells (G12C mutation), 3 days, Table 6; read-out: NCI-H358 (IC50). As for the experimental part: The CellTiter-Glo®, assay was used to detect the number of viable cells, in order to evaluate the anti-proliferation efficacy of compounds. […] The compounds were serially diluted 5-fold in DMSO to obtain 8 concentrations, and then further diluted with RPMI-640 (10% FBS) cell culture medium to obtain the working solutions (5′), 20 μL of each working solution was added to the cell culture supernatant in each well, and the plate was further incubated for 3 days at 37° C. with 5% CO2. The plate was then equilibrated with CellTiter-Glo® reagent at room temperature (25° C.) for 10-30 minutes. After aspirating 50 μL of the medium, 50 μL of CellTiter-Glo® reagent was added. The cells were thoroughly mixed with the CellTiter-Glo® reagent using a microplate shaker for 2 minutes, and then incubated at room temperature for 10 minutes. The 96-well plate was placed in a multi-mode microplate reader to record the luminescence values (RLU). The inhibition rate was calculated through the following equation: [formula] Data were analyzed using GraphPad Prism for IC50 values (Note: The negative control refers to the group without inhibitor).
Background: Cellular ATP, detected with luciferase, serves as a proxy for viable cell number.

The structures appear in SMILES notation. Where two headings read alike, the source gives them in different places.

Chain of PI3Kα (P42336 whole entry): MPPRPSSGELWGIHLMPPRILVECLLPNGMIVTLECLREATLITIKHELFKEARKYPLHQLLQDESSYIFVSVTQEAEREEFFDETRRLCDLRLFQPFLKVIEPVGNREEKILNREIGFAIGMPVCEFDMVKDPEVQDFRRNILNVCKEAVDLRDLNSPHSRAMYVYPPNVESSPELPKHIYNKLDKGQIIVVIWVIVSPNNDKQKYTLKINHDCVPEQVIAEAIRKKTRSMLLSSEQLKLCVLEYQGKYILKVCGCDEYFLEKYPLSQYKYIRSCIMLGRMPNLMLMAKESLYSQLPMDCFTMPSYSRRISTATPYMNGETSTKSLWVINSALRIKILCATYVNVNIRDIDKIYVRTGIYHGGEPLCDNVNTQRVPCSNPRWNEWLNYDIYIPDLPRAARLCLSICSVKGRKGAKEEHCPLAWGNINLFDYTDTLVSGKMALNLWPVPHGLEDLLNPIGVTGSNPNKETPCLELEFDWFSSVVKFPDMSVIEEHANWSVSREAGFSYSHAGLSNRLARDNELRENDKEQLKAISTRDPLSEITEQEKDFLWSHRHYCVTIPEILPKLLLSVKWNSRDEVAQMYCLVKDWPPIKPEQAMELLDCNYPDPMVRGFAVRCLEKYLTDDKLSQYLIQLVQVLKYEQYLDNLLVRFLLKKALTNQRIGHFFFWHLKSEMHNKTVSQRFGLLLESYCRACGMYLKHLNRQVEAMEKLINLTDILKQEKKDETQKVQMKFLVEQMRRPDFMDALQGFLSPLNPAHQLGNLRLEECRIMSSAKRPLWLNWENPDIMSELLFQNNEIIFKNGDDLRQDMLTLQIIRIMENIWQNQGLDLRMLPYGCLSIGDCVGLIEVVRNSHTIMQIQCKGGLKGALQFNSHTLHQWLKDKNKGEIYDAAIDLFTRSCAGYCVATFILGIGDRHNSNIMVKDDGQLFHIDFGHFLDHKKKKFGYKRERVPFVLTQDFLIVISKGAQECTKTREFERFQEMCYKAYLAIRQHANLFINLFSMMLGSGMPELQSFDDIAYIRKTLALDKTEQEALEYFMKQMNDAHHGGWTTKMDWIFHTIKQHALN
Chain of PI3Kα (P27986 whole entry partner): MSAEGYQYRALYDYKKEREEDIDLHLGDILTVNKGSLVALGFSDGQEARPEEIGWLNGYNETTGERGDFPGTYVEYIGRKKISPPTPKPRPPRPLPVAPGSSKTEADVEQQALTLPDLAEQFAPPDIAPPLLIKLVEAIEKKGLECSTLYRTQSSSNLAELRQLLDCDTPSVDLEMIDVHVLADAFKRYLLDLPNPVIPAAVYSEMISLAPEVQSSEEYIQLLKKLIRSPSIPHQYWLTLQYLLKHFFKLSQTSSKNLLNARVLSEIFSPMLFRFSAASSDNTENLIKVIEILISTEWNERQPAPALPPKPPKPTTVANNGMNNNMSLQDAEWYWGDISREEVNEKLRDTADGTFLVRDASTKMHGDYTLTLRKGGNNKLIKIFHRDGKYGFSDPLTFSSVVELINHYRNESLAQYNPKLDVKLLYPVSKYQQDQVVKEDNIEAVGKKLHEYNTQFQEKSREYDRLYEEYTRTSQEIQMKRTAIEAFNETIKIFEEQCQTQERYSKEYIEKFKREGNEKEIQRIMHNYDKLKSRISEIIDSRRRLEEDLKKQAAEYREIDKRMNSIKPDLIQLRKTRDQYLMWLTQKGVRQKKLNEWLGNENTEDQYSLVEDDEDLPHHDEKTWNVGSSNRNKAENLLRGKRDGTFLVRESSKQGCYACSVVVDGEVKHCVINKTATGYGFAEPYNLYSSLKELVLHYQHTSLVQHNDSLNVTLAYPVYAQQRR

For `C=C(F)C(=O)N1CCN(c2ncnc3ccc(-c4cnc(OC)c(NS(=O)(=O)c5c(F)cc(F)cc5F)c4)cc23)CC1` [Example 98, 2,4,6-trifluoro-N-(5-(4-(4-(2-fluoroacryloyl)piperazin-1-yl)quinazolin-6-yl)-2-methoxypyridin-3-yl)benzenesulfonamide], the IC50 (as a rule, the concentration that gives 50% inhibition) at PI3Kα (Table 2) is 9.8 nM; in test [1] it was 8.5 nM.

With `C=CC(=O)N1CCN(c2ncnc3ccc(-c4cnc(OC)c(NS(=O)(=O)c5c(F)cc(F)cc5F)c4)cc23)CC1` [Example 100, N-(5-(4-(4-acryloylpiperazin-1-yl)quinazolin-6-yl)-2-methoxypyridin-3-yl)-2,4,6-trifluorobenzenesulfonamide], the values for the IC50 (at PI3Kα (Table 2); in test [1]) were 0.54 nM and 155 nM, respectively.

Regarding `CC(=O)/C=C/C(=O)N1CCN(c2ncnc3ccc(-c4cnc(OC5CC5)c(NS(=O)(=O)c5ccc(F)cc5F)c4)cc23)CC1` [Example 110, (E)-N-(2-cyclopropoxy-5-(4-(4-(4-oxopent-2-enoyl)piperazin-1-yl)quinazolin-6-yl)pyridin-3-yl)-2,4-difluorobenzenesulfonamide], the IC50 at PI3Kα (Table 2) came to 3.5 nM; in test [1], 155 nM.

In the case of `C=C(F)C(=O)N1CCN(c2ncnc3ccc(-c4cnc(OC)c(NS(=O)(=O)c5c(F)cccc5F)c4)cc23)C[C@@H]1CC#N` [Example 115, (S)-N-(5-(4-(3-(cyanomethyl)-4-(2-fluoroacryloyl)piperazin-1-yl)quinazolin-6-yl)-2-methoxypyridin-3-yl)-2,6-difluorobenzenesulfonamide], the half-inhibitory concentration (IC50) is 1.9 nM on PI3Kα (Table 2) and 46.5 nM in test [1].

For the compound `C=CC(=O)N1CCN(c2ncnc3ccc(-c4cnc(OC)c(NS(=O)(=O)c5c(F)cccc5F)c4)cc23)C[C@@H]1CC#N` [Example 117, (S)-N-(5-(4-(4-acryloyl-3-(cyanomethyl)piperazin-1-yl)quinazolin-6-yl)-2-methoxypyridin-3-yl)-2,6-difluorobenzenesulfonamide], the IC50 on PI3Kα (Table 2) was found to be 1.5 nM; in test [1] it was 37 nM.

As for `COc1ncc(-c2ccc3ncnc(N4CCN(C(=O)/C=C/C(C)=O)CC4)c3c2)cc1NS(=O)(=O)Nc1ccc(F)cc1F` [Example 128, N-(2,4-difluorophenyl)[(2-methoxy-5-(4-(4-[(2E)-4-oxopent-2-enoyl]piperazin-1-yl)quinazolin-6-yl)pyridin-3-yl)amino]sulfonamide], the IC50 on PI3Kα (Table 2) stood at 21.7 nM; in test [1], 278 nM.

Consider `C=C(F)C(=O)N1CC2(CCN(c3ncnc4ccc(-c5cnc(OC)c(NS(=O)(=O)c6c(F)cc(F)cc6F)c5)cc34)CC2)C1` [Example 140, 2,4,6-trifluoro-N-(5-(4-(2-(2-fluoroacryloyl)-2,7-diazaspiro[3.5]nonan-7-yl)quinazoline-6-yl)-2-methoxypyridin-3-yl)benzenesulfonamide], for which the IC50 stood at 0.43 nM at PI3Kα (Table 4) and 7.3 nM in test [1].

In the case of `COc1ncc(-c2ccc3ncnc(N4CC5(CN(C(=O)/C=C/C(C)=O)C5)C4)c3c2)cc1NS(=O)(=O)c1ccc(F)cc1F` [Example 141], the values for the IC50 (at PI3Kα (Table 4); in test [1]) were 0.3 nM and 80.6 nM, respectively.

For `COc1ncc(-c2ccc3ncnc(N4CC5CC(C4)N5C(=O)/C=C/C(C)=O)c3c2)cc1NS(=O)(=O)c1ccc(F)cc1F` [Example 142, (E)-2,4-difluoro-N-(2-methoxy-5-(4-(6-(4-oxopent-2-enoyl)-3,6-diazabicyclo[3.1.1]heptan-3-yl)quinazolin-6-yl)pyridin-3-yl)benzenesulfonamide], the IC50 stood at 0.57 nM on PI3Kα (Table 4) and 351 nM in test [1].

`C=C(F)C(=O)N1C2CCC1CN(c1ncnc3ccc(-c4cnc(OC)c(NS(=O)(=O)c5ccc(F)cc5F)c4)cc13)C2` [Example 146, 2,4-difluoro-N-(5-(4-(8-(2-fluoroacryloyl)-3,8-diazabicyclo[3.2.1]octan-3-yl)quinazolin-6-yl)-2-methoxypyridin-3-yl)benzenesulfonamide]: the figures for the IC50 (on PI3Kα (Table 4); in test [1]) were 2.1 nM and 82.1 nM, respectively.

As to `C=CC(=O)N1CCC(Nc2ncnc3ccc(-c4cnc(OC)c(NS(=O)(=O)c5ccc(F)cc5F)c4)cc23)C1` (centres unmarked) [Example 147, N-(5-(4-((1-acryloylpyrrolidin-3-yl)amino)quinazolin-6-yl)-2-methoxypyridin-3-yl)-2,4-difluorobenzenesulfonamide], the figures for the IC50 (at PI3Kα (Table 4); in test [1]) were 1.6 nM and 790 nM, respectively.

Take `COc1ncc(-c2ccc3ncnc(NC4CCN(C(=O)/C=C/C(C)=O)C4)c3c2)cc1NS(=O)(=O)c1ccc(F)cc1F` (centres unmarked) [Example 148, (E)-2,4-difluoro-N-(2-methoxy-5-(4-((1-(4-oxopent-2-enoyl)pyrrolidin-3-yl)amino)quinazolin-6-yl)pyridin-3-yl)benzenesulfonamide]: the figures for the IC50 (at PI3Kα (Table 4); in test [1]) were 9.2 nM and 638 nM, respectively.

With `COc1ncc(-c2ccc3ncnc(N4CC5CCC(C4)N5C(=O)/C=C/C(C)=O)c3c2)cc1NS(=O)(=O)c1ccc(F)cc1` [Example 149, 4-fluoro-N-(2-methoxy-5-(4-(8-((E)-4-oxopent-2-enoyl)-3,8-diazabicyclo[3.2.1]octan-3-yl)quinazolin-6-yl)pyridin-3-yl)benzenesulfonamide], the figures for the IC50 (at PI3Kα (Table 4); in test [1]) were 3.3 nM and 90.7 nM, respectively.

For the compound `COc1ncc(-c2ccc3ncnc(N4CC5CCC(C4)N5C(=O)/C=C/C(C)=O)c3c2)cc1NS(=O)(=O)c1ccccc1F` [Example 151, 2-fluoro-N-(2-methoxy-5-(4-(8-((E)-4-oxopent-2-enoyl)-3,8-diazabicyclo[3.2.1]octan-3-yl)quinazolin-6-yl)pyridin-3-yl)benzenesulfonamide], the IC50 on PI3Kα (Table 4) turned out to be 5.9 nM; in test [1], 80.3 nM.

As for `C=C(F)C(=O)N1C2CCC1CN(c1ncnc3ccc(-c4cnc(OC)c(NS(=O)(=O)c5c(F)cc(F)cc5F)c4)cc13)C2` [Example 156, 2,4,6-trifluoro-N-(5-(4-(8-(2-fluoroacryloyl)-3,8-diazabicyclo[3.2.1]octan-3-yl)quinazolin-6-yl)-2-methoxypyridin-3-yl)benzenesulfonamide], the IC50 on PI3Kα (Table 4) came to 0.5 nM; in test [1] it was 29.7 nM.

As to `COc1ncc(-c2ccc3ncnc(N4CC5CN(C(=O)/C=C/C(C)=O)CC5C4)c3c2)cc1NS(=O)(=O)c1ccc(F)cc1F` (centres unmarked) [Example 157, (E)-2,4-difluoro-N-(2-methoxy-5-(4-(5-(4-oxopent-2-enoyl)hexahydropyrrolo[3,4-c]pyrrol-2(1H)-yl)quinazolin-6-yl)pyridin-3-yl)benzenesulfonamide], the IC50 on PI3Kα (Table 4) was determined as 1.3 nM; in test [1] it was 128 nM.

Consider `COc1ncc(-c2ccc3ncnc(N4CC5CCC(C4)N5C(=O)/C=C/C(C)=O)c3c2)cc1NS(=O)(=O)c1c(F)cncc1F` [Example 162, 3,5-difluoro-N-(2-methoxy-5-(4-(8-((E)-4-oxopent-2-enoyl)-3,8-diazabicyclo[3.2.1]octan-3-yl)quinazolin-6-yl)pyridin-3-yl)pyridine-4-sulfonamide], for which the IC50 was 2.4 nM on PI3Kα (Table 4) and 141 nM in test [1].

For the compound `COc1ncc(-c2ccc3ncnc(N4CCC5(CC4)CN(C(=O)/C=C/C(C)=O)C5)c3c2)cc1NS(=O)(=O)c1c(F)cncc1F` [Example 163, (E)-3,5-difluoro-N-(2-methoxy-5-(4-(2-(4-oxopent-2-enoyl)-2,7-diazaspiro[3.5]nonan-7-yl)quinazolin-6-yl)pyridin-3-yl)pyridine-4-sulfonamide], the IC50 turned out to be 0.25 nM at PI3Kα (Table 4) and 190 nM in test [1].

Regarding `COc1ncc(-c2ccc3ncnc(N4CCN(C(=O)/C=C/C(C)=O)C[C@@H]4C)c3c2)cc1NS(=O)(=O)c1c(F)cncc1F` [Example 164, (S,E)-3,5-difluoro-N-(2-methoxy-5-(4-(2-methyl-4-(4-oxopent-2-enoyl)piperazin-1-yl)quinazolin-6-yl)pyridin-3-yl)pyridine-4-sulfonamide], the IC50 came out at 2.8 nM at PI3Kα (Table 4) and 156 nM in test [1].
